These results are taken from patent US8551984B2, “Aminopyrimidines as SYK inhibitors” (Merck Sharp & Dohme Corp., priority 2009, dated 2013).

SMILES strings stand for the structures. Bounds are passed on as bounds.

This experiment addresses rhSYK (Homo sapiens, UniProt P43405). Put plainly: biochemical.
`COCCCNC(=O)[C@H]1CC[C@](O)(c2ncc(-c3cc(C)cc(Nc4nccc(C(F)(F)F)n4)c3)s2)CC1` [Example 119-31]: the IC50 was below 0.1 µM. `Cc1cc(Nc2nccc(C(F)(F)F)n2)cc(-c2cnc(C3(O)CCC(C(=O)NCC(O)CO)CC3)s2)c1` (stereo not drawn) [Example 119-32] registered an IC50 below 0.1 µM. `Cc1cc(Nc2nccc(C(F)(F)F)n2)cc(-c2cnc(C3(O)CCC(C(=O)Nc4ccncc4)CC3)s2)c1` (stereo not drawn) [Example 119-34]: the IC50 is below 0.1 µM. `Cc1cc(Nc2nccc(C(F)(F)F)n2)cc(-c2cnc([C@]3(O)CC[C@@H](C(=O)Nc4ccccn4)CC3)s2)c1` [Example 119-35]: the IC50 is below 0.1 µM.

`Cc1cc(Nc2nccc(C(F)(F)F)n2)cc(-c2cnc([C@]3(O)CC[C@@H](C(=O)Nc4cccnc4)CC3)s2)c1` [Example 119-36]: the IC50 was below 0.1 µM. Under `Cc1cc(Nc2nccc(C(F)(F)F)n2)cc(-c2cnc(C3(O)CCC(C(=O)N4CCC(C#N)C4)CC3)s2)c1` (stereo not drawn) [Example 119-37] stands below 0.1 µM. To `Cc1cc(Nc2nccc(C(F)(F)F)n2)cc(-c2cnc(C3(O)CCC(C(=O)NCc4cc[nH]n4)CC3)s2)c1` (stereo not drawn) [Example 119-39] belongs below 0.1 µM; to `CCN(CCC#N)C(=O)C1CCC(O)(c2ncc(-c3cc(C)cc(Nc4nccc(C(F)(F)F)n4)c3)s2)CC1` (stereo not drawn) [Example 119-40], below 0.1 µM; to `Cc1cc(Nc2nccc(C(F)(F)F)n2)cc(-c2cnc(C3(O)CCC(C(=O)NCc4cocn4)CC3)s2)c1` (stereo not drawn) [Example 119-42], below 0.1 µM. To `Cc1cc(Nc2nccc(C(F)(F)F)n2)cc(-c2cnc(C3(O)CCC(C(=O)NC4CCCCC4)CC3)s2)c1` (stereo not drawn) [Example 119-44] belongs below 0.1 µM. As to `Cc1cc(Nc2nccc(C(F)(F)F)n2)cc(-c2cnc([C@]3(O)CC[C@@H](C(=O)N4CCN(C)CC4)CC3)s2)c1` [Example 119-46], the half-inhibitory concentration (IC50) is below 0.1 µM. `Cc1cc(Nc2nccc(C(F)(F)F)n2)cc(-c2cnc([C@]3(O)CC[C@@H](C(=O)N4CCC(O)CC4)CC3)s2)c1` [Example 119-47] came in with a concentration for half-maximal inhibition (IC50) below 0.1 µM. Under `CC(=O)NCCNC(=O)[C@H]1CC[C@](O)(c2ncc(-c3cc(C)cc(Nc4nccc(C(F)(F)F)n4)c3)s2)CC1` [Example 119-49] stands below 0.1 µM; under `Cc1cc(Nc2nccc(C(F)(F)F)n2)cc(-c2cnc([C@]3(O)CC[C@@H](C(=O)N(CCO)CCO)CC3)s2)c1` [Example 119-50], below 0.1 µM; under `Cc1cc(Nc2nccc(C(F)(F)F)n2)cc(-c2cnc([C@]3(O)CC[C@@H](C(=O)NCc4ccccc4)CC3)s2)c1` [Example 119-51], below 0.1 µM.

`Cc1cc(Nc2nccc(C(F)(F)F)n2)cc(-c2cnc([C@]3(O)CC[C@@H](C(=O)NCc4ccccn4)CC3)s2)c1` [Example 119-54] had an IC50 below 0.1 µM. Under `Cc1cc(Nc2nccc(C(F)(F)F)n2)cc(-c2cnc([C@]3(O)CC[C@@H](C(=O)Nc4ccc(O)cc4)CC3)s2)c1` [Example 119-55] stands below 0.1 µM; under `Cc1cc(Nc2nccc(C(F)(F)F)n2)cc(-c2cnc([C@]3(O)CC[C@@H](C(=O)Nc4ccccc4O)CC3)s2)c1` [Example 119-56], below 0.1 µM. Under `Cc1cc(Nc2nccc(C(F)(F)F)n2)cc(-c2cnc(C3(O)CCC(C(=O)N4CCC(C#N)CC4)CC3)s2)c1` (stereo not drawn) [Example 119-59] stands below 0.1 µM. To `Cc1cc(Nc2nccc(C(F)(F)F)n2)cc(-c2cnc(C3(O)CCC(C(=O)N4CCCC(C#N)C4)CC3)s2)c1` (stereo not drawn) [Example 119-60] belongs below 0.1 µM; to `Cc1cc(Nc2nccc(C(F)(F)F)n2)cc(-c2cnc([C@]3(O)CC[C@@H](C(=O)Nc4ccc(F)cc4)CC3)s2)c1` [Example 119-62], below 0.1 µM. Consider `Cc1cc(Nc2nccc(C(F)(F)F)n2)cc(-c2cnc([C@]3(O)CC[C@@H](C(=O)NCc4cccs4)CC3)s2)c1` [Example 119-63], for which the IC50 is below 0.1 µM. Under `CC(=O)N(C)CCNC(=O)C1CCC(O)(c2ncc(-c3cc(C)cc(Nc4nccc(C(F)(F)F)n4)c3)s2)CC1` (stereo not drawn) [Example 119-68] stands below 0.1 µM. Under `Cc1cc(Nc2nccc(C(F)(F)F)n2)cc(-c2cnc(C3(O)CCC(C(=O)N(C)Cc4ccccc4)CC3)s2)c1` (stereo not drawn) [Example 119-69] stands below 0.1 µM; under `Cc1cc(Nc2nccc(C(F)(F)F)n2)cc(-c2cnc(C3(O)CCC(C(=O)NCCc4ccccc4)CC3)s2)c1` (stereo not drawn) [Example 119-70], below 0.1 µM. Under `Cc1cc(Nc2nccc(C(F)(F)F)n2)cc(-c2cnc([C@]3(O)CC[C@@H](C(=O)NCc4cccc(O)c4)CC3)s2)c1` [Example 119-71] stands below 0.1 µM. Compound `Cc1cc(Nc2nccc(C(F)(F)F)n2)cc(-c2cnc([C@]3(O)CC[C@@H](C(=O)Nc4ccc(CO)cc4)CC3)s2)c1` [Example 119-72] showed a half-inhibitory concentration (IC50) below 0.1 µM. Under `Cc1cc(Nc2nccc(C(F)(F)F)n2)cc(-c2cnc([C@]3(O)CC[C@@H](C(=O)Nc4cccc(CO)c4)CC3)s2)c1` [Example 119-73] stands below 0.1 µM; under `Cc1cc(Nc2nccc(C(F)(F)F)n2)cc(-c2cnc([C@]3(O)CC[C@@H](C(=O)NCc4ccccc4O)CC3)s2)c1` [Example 119-74], below 0.1 µM; under `Cc1cc(Nc2nccc(C(F)(F)F)n2)cc(-c2cnc([C@]3(O)CC[C@@H](C(=O)NCc4ccc(O)cc4)CC3)s2)c1` [Example 119-75], below 0.1 µM. To `Cc1cc(Nc2nccc(C(F)(F)F)n2)cc(-c2cnc([C@]3(O)CC[C@@H](C(=O)Nc4ccc(O)cc4O)CC3)s2)c1` [Example 119-76] belongs below 0.1 µM; to `Cc1cc(Nc2nccc(C(F)(F)F)n2)cc(-c2cnc(C3(O)CCC(C(=O)NCc4ccc(F)cc4)CC3)s2)c1` (stereo not drawn) [Example 119-77], below 0.1 µM; to `CC(=O)NCCCCNC(=O)[C@H]1CC[C@](O)(c2ncc(-c3cc(C)cc(Nc4nccc(C(F)(F)F)n4)c3)s2)CC1` [Example 119-81], below 0.1 µM.

`Cc1cc(Nc2nccc(C(F)(F)F)n2)cc(-c2cnc([C@]3(O)CC[C@@H](C(=O)Nc4ccc5[nH]ccc5c4)CC3)s2)c1` [Example 119-82] gave an IC50 below 0.1 µM. Take `Cc1cc(Nc2nccc(C(F)(F)F)n2)cc(-c2cnc([C@]3(O)CC[C@@H](C(=O)NCCCc4ccccc4)CC3)s2)c1` [Example 119-83]: the half-inhibitory concentration (IC50) was below 0.1 µM. Under `Cc1cc(Nc2nccc(C(F)(F)F)n2)cc(-c2cnc(C3(O)CCC(C(=O)NCCOc4ccccc4)CC3)s2)c1` (stereo not drawn) [Example 119-84] stands below 0.1 µM; under `Cc1cc(Nc2nccc(C(F)(F)F)n2)cc(-c2cnc([C@]3(O)CC[C@@H](C(=O)NCc4ccc(O)c(O)c4)CC3)s2)c1` [Example 119-86], below 0.1 µM; under `Cc1cc(Nc2nccc(C(F)(F)F)n2)cc(-c2cnc([C@]3(O)CC[C@@H](C(=O)NCc4ccc(Cl)cc4)CC3)s2)c1` [Example 119-87], below 0.1 µM. To `Cc1cc(Nc2nccc(C(F)(F)F)n2)cc(-c2cnc([C@]3(O)CC[C@@H](C(=O)NCCCN4CCCC4=O)CC3)s2)c1` [Example 119-88] belongs below 0.1 µM. To `Cc1cc(Nc2nccc(C(F)(F)F)n2)cc(-c2cnc(C3(O)CCC(C(=O)NC4CCC(C(N)=O)CC4)CC3)s2)c1` (stereo not drawn) [Example 119-90] belongs below 0.1 µM. Regarding `Cc1cc(Nc2nccc(C(F)(F)F)n2)cc(-c2cnc(C3(O)CCC(C(=O)NC4CCC(C(=O)O)CC4)CC3)s2)c1` (stereo not drawn) [Example 119-91], the 50% inhibitory concentration (IC50) was below 0.1 µM. `COC(=O)N1CCN(C(=O)C2CCC(O)(c3ncc(-c4cc(C)cc(Nc5nccc(C(F)(F)F)n5)c4)s3)CC2)CC1` (stereo not drawn) [Example 119-92] returned an IC50 below 0.1 µM. With `Cc1cc(Nc2nccc(C(F)(F)F)n2)cc(-c2cnc(C3(O)CCC(C(=O)NC4CCCc5ccccc54)CC3)s2)c1` (stereo not drawn) [Example 119-93], the 50% inhibitory concentration (IC50) is below 0.1 µM. The compound `Cc1cc(Nc2nccc(C(F)(F)F)n2)cc(-c2cnc([C@]3(O)CC[C@@H](C(=O)NCc4cn5ccccc5n4)CC3)s2)c1` [Example 119-94] registered an IC50 below 0.1 µM.

Compound `Cc1cc(Nc2nccc(C(F)(F)F)n2)cc(-c2cnc(C3(O)CCC(C(=O)NC4c5ccccc5CC4O)CC3)s2)c1` (stereo not drawn) [Example 119-95] returned a half-maximal inhibitory concentration (IC50) below 0.1 µM. Under `Cc1cc(Nc2nccc(C(F)(F)F)n2)cc(-c2cnc([C@]3(O)CC[C@@H](C(=O)NCc4cccc5c4C(=O)NC5)CC3)s2)c1` [Example 119-96] stands below 0.1 µM; under `Cc1cc(Nc2nccc(C(F)(F)F)n2)cc(-c2cnc([C@]3(O)CC[C@@H](C(=O)NCc4ccc5c(c4)C(=O)NC5)CC3)s2)c1` [Example 119-97], below 0.1 µM; under `Cc1cc(Nc2nccc(C(F)(F)F)n2)cc(-c2cnc([C@]3(O)CC[C@@H](C(=O)NCc4ccc5c(c4)CNC5=O)CC3)s2)c1` [Example 119-99], below 0.1 µM. The compound `Cc1cc(Nc2nccc(C(F)(F)F)n2)cc(-c2cnc([C@]3(O)CC[C@@H](C(=O)NCc4ccc(C(F)(F)F)cc4)CC3)s2)c1` [Example 119-100] gave an IC50 below 0.1 µM. Under `Cc1cc(Nc2nccc(C(F)(F)F)n2)cc(-c2cnc([C@]3(O)CC[C@@H](C(=O)N4CCC(Cc5ccccc5)CC4)CC3)s2)c1` [Example 119-102] stands 0.1 to 1 µM. To `Cc1cc(Nc2nccc(C(F)(F)F)n2)cc(-c2cnc([C@]3(O)CC[C@@H](C(=O)NCc4ccc5c(c4)NC(=O)CC5)CC3)s2)c1` [Example 119-103] belongs below 0.1 µM; to `Cc1cc(Nc2nccc(C(F)(F)F)n2)cc(-c2cnc([C@]3(O)CC[C@@H](C(=O)NCc4ccc(-n5cc(CO)cn5)cc4)CC3)s2)c1` [Example 119-105], below 0.1 µM; to `Cc1cc(Nc2nccc(C(F)(F)F)n2)cc(-c2cnc(C3(O)CCC(C(=O)NCc4ccc(CC5COC(=O)N5)cc4)CC3)s2)c1` (stereo not drawn) [Example 119-106], below 0.1 µM.

`Cc1cc(Nc2nccc(C)n2)cc(-c2cnc(C3(O)CCC(C(=O)NCC#N)C(C)C3)s2)c1` (stereo not drawn) [Example 119-108] showed an IC50 below 0.1 µM. To `Cc1cc(Nc2nccc(C(C)(C)C)n2)cc(-c2cnc(C3(O)CCC(C(N)=O)C(C)C3)s2)c1` (stereo not drawn) [Example 119-109] belongs below 0.1 µM; to `Cc1cc(Nc2nccc(OC(C)C)n2)cc(-c2cnc(C3(O)CCC(C(N)=O)C(C)C3)s2)c1` (stereo not drawn) [Example 119-110], below 0.1 µM.

`Cc1cc(Nc2nccc(C(C)C)n2)cc(-c2cnc(C3(O)CCC(C(=O)NCC#N)C(C)C3)s2)c1` (stereo not drawn) [Example 119-113] had a 50% inhibitory concentration (IC50) below 0.1 µM.
